# Patent US8551999B2, “Heterocyclic compound and pharmaceutical composition thereof” (Otsuka Pharmaceutical Co., Ltd., priority 2007, dated 2013)
row,Compound,melting point
1,"Br.CN(C(=O)c1ccc(Cl)c(Cl)c1)c1ccc(Oc2ccc3cc(C(=O)N4CCN(Cc5ccc6c(c5)OC(F)(F)O6)CC4)n(C)c3c2)nc1 [Example 489, 3,4-Dichloro-N-(6-{2-[4-(2,2-difluorobenzo[1,3]dioxol-5-yl-methyl)piperazine-1-carbonyl]-1-methyl-1H-indol-6-yloxy}pyridin-3-yl)-N-methylbenzamide hydrobromide]",225.4 to 227.1 °C
2,"Cc1ccc(S(=O)(=O)N(C)c2ccc(Oc3ccc4cc(C(=O)N5CCN(Cc6ccc(OCCF)cc6)CC5)n(C)c4c3)nc2)cc1 [Example 531, N-[6-(2-{4-[4-(2-Fluoroethoxy)benzyl]piperazine-1-carbonyl}-1-methyl-1H-indol-6-yloxy)pyridin-3-yl]-4,N-dimethylbenzene-sulfonamide]",138.7 to 139.8 °C
3,"Br.CCOc1ccc(CN2CCN(C(=O)c3cc4cc(Oc5cc(C)c(N(C)C(=O)c6ccc(C(F)(F)F)cc6)cn5)ccc4n3C)CC2)cc1 [Example 365, N-(6-{2-[4-(4-Ethoxybenzyl)piperazine-1-carbonyl]-1-methyl-1H-indol-5-yloxy}-4-methylpyridin-3-yl)-N-methyl-4-trifluoromethyl-benzamide hydrobromide]",163 to 166 °C
4,"Br.CC(C)Oc1ccc(CN2CCN(C(=O)c3cc4ccc(Oc5ccc(NC(=O)c6ccc(Cl)c(Cl)c6)cn5)cc4n3C)CC2)cc1F [Example 266, 3,4-Dichloro-N-(6-{2-[4-(3-fluoro-4-isopropoxybenzyl)piperazine-1-carbonyl]-1-methyl-1H-indol-6-yloxy}pyridin-3-yl)benzamide hydrobromide]",244.3 to 247 °C
5,Cc1cc(C(F)(F)F)ccc1C(=O)Nc1ccc(Oc2ccc3cc(C(=O)N4CCN(Cc5ccc6c(c5)OC(F)(F)O6)CC4)n(C)c3c2)nc1.Cl,207.9 to 211.5 °C
6,"CN(c1ccc(Oc2ccc3cc(C(=O)N4CCN(Cc5ccc(OC(F)F)cc5)CC4)n(C)c3c2)nc1)S(=O)(=O)c1ccc(Cl)c(Cl)c1 [Example 515, 3,4-Dichloro-N-(6-{2-[4-(4-difluoromethoxybenzyl)piperazine-1-carbonyl]-1-methyl-1H-indol-6-yloxy}pyridin-3-yl)-N-methyl-benzenesulfonamide]",143.4 to 147.2 °C
7,"CCCOc1ccc(CN2CCN(C(=O)c3cc4cc(Oc5ccc(N(C)C(=O)c6ccc(Cl)c(Cl)c6)cn5)ccc4n3C)CC2)cc1.O=C(O)/C=C\C(=O)O [Example 370, 3,4-Dichloro-N-methyl-N-(6-{1-methyl-2-[4-(4-propoxybenzyl)-piperazine-1-carbonyl]-1H-indol-5-yloxy}pyridin-3-yl)benzamide maleate]",163 to 164 °C
8,"Br.Cn1c(C(=O)N2CCN(Cc3ccc(OCC(F)(F)F)cc3)CC2)cc2ccc(Oc3ccc(NC(=O)c4ccc(C(F)(F)F)cc4)cn3)cc21 [Example 474, N-[6-(1-Methyl-2-{4-[4-(2,2,2-trifluoroethoxy)benzyl]piperazine-1-carbonyl}-1H-indol-6-yloxy)pyridin-3-yl]-4-trifluoromethyl-benzamide hydrobromide]",269 to 270.3 °C
9,"Br.CCc1ccc(CN2CCN(C(=O)c3cc4cc(Oc5ccc(NC(=O)c6ccc(C(F)(F)F)cc6)cn5)ccc4n3C)CC2)cc1 [Example 390, N-(6-{2-[4-(4-Ethylbenzyl)piperazine-1-carbonyl]-1-methyl-1H-indol-5-yloxy}pyridin-3-yl)-4-trifluoromethylbenzamide hydrobromide]",239 to 241 °C
10,"CN(c1ccc(Oc2ccc3cc(C(=O)N4CCN(Cc5ccc6c(c5)OC(F)(F)O6)CC4)n(C)c3c2)nc1)S(=O)(=O)c1ccc(Cl)c(Cl)c1 [Example 508, 3,4-Dichloro-N-(6-{2-[4-(2,2-difluorobenzo[1,3]dioxol-5-yl-methyl)piperazine-1-carbonyl]-1-methyl-1H-indol-6-yloxy}pyridin-3-yl)-N-methylbenzenesulfonamide]",149.9 to 151.3 °C
11,"Cn1c(C(=O)N2CCN(Cc3ccccn3)CC2)cc2cc(Oc3ncc(NC(=O)c4ccc(Cl)c(Cl)c4)cn3)ccc21 [Example 385, 3,4-Dichloro-N-{2-[1-methyl-2-(4-pyridin-2-ylmethylpiperazine-1-carbonyl)-1H-indol-5-yloxy]pyrimidin-5-yl}benzamide]",161 to 163 °C
12,"Br.Cn1c(C(=O)N2CCN(Cc3ccc4c(c3)OCO4)CC2)cc2cc(Oc3ccc(NC(=O)c4ccc(C(F)(F)F)cc4C(F)(F)F)cn3)ccc21 [Example 9, N-{6-[2-(4-Benzo[1,3]dioxol-5-ylmethylpiperazine-1-carbonyl)-1-methyl-1H-indol-5-yloxy]pyridin-3-yl}-2,4-bistrifluoromethyl-benzamide hydrobromide]",258 to 261 °C (dec.)
13,"Br.CN(C(=O)c1ccc(C(F)(F)F)cc1Cl)c1ccc(Oc2ccc3cc(C(=O)N4CCN(Cc5ccc(OCC(F)F)cc5)CC4)n(C)c3c2)nc1 [Example 448, 2-Chloro-N-[6-(2-{4-[4-(2,2-difluoroethoxy)benzyl]piperazine-1-carbonyl}-1-methyl-1H-indol-6-yloxy)pyridin-3-yl]-N-methyl-4-tri-fluoromethylbenzamide hydrobromide]",232.4 to 232.8 °C
14,"CN(c1ccc(Oc2ccc3cc(C(=O)N4CCN(Cc5ccc(OCCF)cc5)CC4)n(C)c3c2)nc1)S(=O)(=O)c1ccc(Cl)c(Cl)c1 [Example 513, 3,4-Dichloro-N-[6-(2-{4-[4-(2-fluoroethoxy)benzyl]piperazine-1-carbonyl}-1-methyl-1H-indol-6-yloxy)pyridin-3-yl]-N-methyl-benzenesulfonamide]",195.2 to 196.8 °C
15,"CN(c1ccc(Oc2ccc3cc(C(=O)N4CCN(Cc5ccc(OCC(F)(F)F)cc5)CC4)n(C)c3c2)nc1)S(=O)(=O)c1ccc(Cl)c(Cl)c1 [Example 68, 3,4-Dichloro-N-methyl-N-[6-(1-methyl-2-{4-[4-(2,2,2-trifluoro-ethoxy)benzyl]piperazine-1-carbonyl}-1H-indol-6-yloxy)pyridin-3-yl]benzenesulfonamide]",165.9 to 167.2 °C
16,"COc1ccc(C(=O)N2CCN(C(=O)c3cc4cc(Oc5ccc(NC(=O)c6ccc(C(F)(F)F)cc6)cn5)ccc4n3C)CC2)cc1 [Example 240, N-(6-{2-[4-(4-Methoxybenzoyl)piperazine-1-carbonyl]-1-methyl-1H-indol-5-yloxy}pyridin-3-yl)-4-trifluoromethylbenzamide]",195 to 196 °C
17,"Br.CN(C(=O)c1ccc(C(F)(F)F)cc1)c1ccc(Oc2ccc3cc(C(=O)N4CCN(Cc5ccc(OC(F)F)cc5)CC4)n(C)c3c2)nc1 [Example 422, N-(6-{2-[4-(4-Difluoromethoxybenzyl)piperazine-1-carbonyl]-1-methyl-1H-indol-6-yloxy}pyridin-3-yl)-N-methyl-4-trifluoromethyl-benzamide hydrobromide]",229 to 230 °C
18,Cc1ccc(S(=O)(=O)N(C)c2ccc(Oc3ccc4cc(C(=O)N5CCN(Cc6ccc(OCC(F)(F)F)cc6)CC5)n(C)c4c3)nc2)cc1.Cl,246.4 to 247.2 °C
19,"CCCOc1ccc(CN2CCN(C(=O)c3cc4ccc(Oc5ccc(N(C)S(=O)(=O)c6ccc(Cl)c(Cl)c6)cn5)cc4n3C)CC2)cc1 [Example 33, 3,4-Dichloro-N-methyl-N-(6-{1-methyl-2-[4-(4-propoxybenzyl)-piperazine-1-carbonyl]-1H-indol-6-yloxy}pyridin-3-yl)-benzenesulfonamide]",231.7 to 235 °C (dec.)
